Key:
VPS13D-LTD [1] = target: T1, VPS13D-LTD (Homo sapiens, UniProt Q5THJ4); experiment: competition with BODIPY-C16, native PAGE; type: binding; settings: unlabeled, non-BSA-conjugated palmitic acid; competitor of BODIPY-C16
T1 construct: lipid transfer domain, residues 1-320; pET28a-6xHis-SUMO fusion, tag cleavage not mentioned; expressed in E. coli (DE3), Ni-NTA purified
T1 sequence (Q5THJ4 1-320): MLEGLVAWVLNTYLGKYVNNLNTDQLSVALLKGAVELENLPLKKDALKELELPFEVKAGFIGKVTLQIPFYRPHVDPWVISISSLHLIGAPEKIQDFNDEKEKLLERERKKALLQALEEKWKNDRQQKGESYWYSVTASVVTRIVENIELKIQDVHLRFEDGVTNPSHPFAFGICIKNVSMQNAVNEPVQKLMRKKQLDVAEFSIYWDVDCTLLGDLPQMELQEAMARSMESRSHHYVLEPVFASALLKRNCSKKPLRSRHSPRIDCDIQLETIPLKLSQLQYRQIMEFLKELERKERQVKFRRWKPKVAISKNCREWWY

VAB-ΔPSAP-GFP (human) = experiment: co-IP; GFP-Trap agarose beads (ChromoTek) on lysates of HEK293 cells, by the manufacturer's protocol; GFP-tagged protein held, partner detected by western blot (anti-TSG101 or anti-Halo); 5% input
VPS13D-LTD [2] = target: T1, VPS13D-LTD; experiment: native PAGE co-migration, fluorescence; type: binding; settings: labelled compound; 4 °C, 3 h; 1.5 mg/ml protein

CCCCCCCCCCCCCCCC(=O)O [palmitic acid]
competition with BODIPY-C16, native PAGE (VPS13D-LTD [1]): palmitic acid, but not OA, could sufficiently outcompete BODIPY-C16 for binding to VPS13D-LTD

Halo-TSG101 (from UniProt Q99816 1-390) (natural protein)
reduction of the interaction against VAB-GFP (VAB-ΔPSAP-GFP (human)): 60%

O=C(O)CCCCCCCCCCCNc1ccc([N+](=O)[O-])c2nonc12 [C12, NBD-C12]
native PAGE co-migration, fluorescence (VPS13D-LTD [2]): purified VPS13D-LTD could bind NBD-labeled fatty acids C12 (NBD-C12)
